PubChem BioAssay AID1117319 (Southern Research Institute, 2015)
Records with an inconclusive call do not appear.

Biological target: Virion infectivity factor (Human immunodeficiency virus type 1 group M subtype B (isolate BH10)) + Virion infectivity factor (Human immunodeficiency virus type 1 group M subtype B (isolate BRU/LAI)) + Virion infectivity factor (Human immunodeficiency virus type 1 group M subtype B (isolate PCV12)) + Virion infectivity factor (Human immunodeficiency virus type 1 group M subtype B (isolate HXB2)) + DNA dC->dU-editing enzyme APOBEC-3G (Homo sapiens) (UniProt P69720+P69721+P69722+P69723+Q9HC16)
Test: HIV-1 Vif–A3G interaction blockers – biochemical, TR-FRET, GST-Vif 1-94, biotin-A3G peptide, dose response retest, primary screen (AID 1117319);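 further: Vif residues 1-94 fused to GST binding biotinylated APOBEC3G peptide 110-148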
Details: TR-FRET GST-Vif / biotin-A3G peptide binding

| SMILES | IC50 |
| --- | --- |
| O=C1C2CCCN2C(c2cccs2)N1c1ccccn1 (centres undefined) | 82 µM |
| O=C1CCCC(O)=C1N=Nc1ccc(S(=O)(=O)N2CCOCC2)cc1 | 6.66 µM |
| O=C(O)C1OC(Oc2c(-c3ccc(O)c(O)c3)oc3cc(O)cc(O)c3c2=O)C(O)C(O)C1O (centres undefined) | 2.7 µM |
| CC(=O)c1sc(C(=O)O)c(-c2ccco2)c1-c1ccco1 | 9.78 µM |
| COc1ccccc1NC(=O)c1oc2ccc(C)cc2c1C | 98 µM |
| O=C(O)Cc1cccc(=O)c(O)c1C(=O)O | 8.19 µM |
| NS(=O)(=O)c1ccc(N/N=C/c2ccc(O)c(O)c2O)c([N+](=O)[O-])c1 | 0.92 µM |
| Cc1ccc(CNC(=O)COc2ccc3c(c2)CCC3)cc1 | 44.6 µM |
| C=CC1=C(C(=O)O)N2C(=O)C(NC(=O)Cc3ccccc3)C2SC1 (centres undefined) | 11.5 µM |
| CC(C)c1ccc(/C=C/C(=O)N2CCc3ccccc3C2)cc1 | 17.9 µM |
| N=C1/C(=C/c2ccc(Br)o2)C(=O)N=C2SC(CC(=O)N3CCCC3)=NN12 | 27.8 µM |
| O=C(C1CCCO1)N1CCC2(CC1)OCCO2 (centres undefined) | 1.39 µM |
| N=C1/C(=C\c2ccc(SCc3ccco3)o2)C(=O)N=C2SC=NN12 | 1.21 µM |
| O=C(NN1C(=O)/C(=C/C=C/c2ccco2)SC1=S)c1ccncc1 | 2.37 µM |
| Cc1c(Cl)cccc1NS(=O)(=O)c1ccc2c(c1)C1C=CCC1C(c1ccc(C(=O)O)cc1)N2 (centres undefined) | 2.54 µM |
| N#C/C(=C\c1ccc([N+](=O)[O-])o1)C(=O)Nc1ccc(F)cc1 | 7.59 µM |
| Nc1ncnc2oc(-c3ccco3)c(-c3ccco3)c12 | 0.55 µM |
| CC(C)(CS(=O)(=O)[O-])NC(=O)CC[N+](C)(C)CCO | 1.5 µM |
| Cc1cc(O)c(-c2cc(O)c(C)cc2O)cc1O | 8.44 µM |
| O=C(c1cc(-c2ccco2)on1)N1CCN(c2ccccc2)CC1 | 31.2 µM |
| CC(=O)Nc1ccc(S(=O)(=O)Nc2nc3ccccc3nc2Nc2ccc(N)cc2)cc1 | 0.62 µM |
| COc1cccc(C(C#N)N2CCCCC2)c1O (centres undefined) | 79.2 µM |
| CCC(C)(C)n1nnnc1C(c1cc2cc(C)ccc2[nH]c1=O)N1CCCc2ccccc21 (centres undefined) | 93.5 µM |
| O=C1CCCC/C1=C/Nc1ccc2c(c1)OCO2 | 5.94 µM |
| Cc1ccc(Nc2nc(C(=O)NCc3ccco3)cs2)cc1 | 78.2 µM |
| CC1OC(CC(=O)O)CC2=C1C(=O)c1c(O)cccc1C2=O (centres undefined) | 4.16 µM |
| COc1cc(NCCCCCCN)c2ncccc2c1OC | 3.55 µM |

| SMILES | IC50 |
| --- | --- |
| CC(C)OP(=O)(OC(C)C)C(O)c1ccc(N(C)C)cc1 (centres undefined) | 75.9 µM |
| CCOC(=O)C1=C(C)NC(C)=C(C(=O)OCC)C1c1cn(-c2ccccc2)nc1-c1ccco1 | 31.1 µM |
| COC(=O)C1C(O)C(C)C(O)C(C)(O)/C=C\C=C(/C)C(=O)Nc2c(C)c(OC(C)=O)c3c(c2O)C(=O)C(C)=C2OCOC(=C23)/C(C)=C/C(C)(O)C(O)C(C)C1O (centres undefined) | 13.6 µM |
| CCC(C)(C)n1nnnc1C(c1ccc2ncccc2c1)N1CCN(c2ccc(O)cc2)CC1 (centres undefined) | 4.65 µM |
| O=CN/C=C/c1cc(O)ccc1O | 1.72 µM |
| O=C1/C(=C/C=C/c2ccco2)SC(=S)N1NS(=O)(=O)c1ccccc1 | 2.9 µM |
| CCCCN1C(=O)/C(=C/C=C/c2ccco2)C(=O)NC1=S | 4.61 µM |
| O=C(NNC(=O)c1ccccc1O)c1cc2ccccc2o1 | 16.5 µM |
| Cc1nc2nc(C)c(CCC(=O)N3CCN(c4ccccc4)CC3)c(C)n2n1 | 59.5 µM |
| CCOc1cccc(=O)c2c(C)oc(C)c12 | 6.16 µM |
| CCOC(=O)C1=C(c2ccccc2)N=c2s/c(=C\c3ccco3)c(=O)n2C1c1cccs1 (centres undefined) | 3.76 µM |
| COc1cc(NCCCNC(C)C)c2nccc(C)c2c1 | 52.8 µM |
| Cc1oc(/N=C/c2cccc3ccccc23)c(C#N)c1C | 52.7 µM |
| CC(=O)c1ccc(S(=O)(=O)Nc2cccc(-n3cnnn3)c2)cc1 | 12.1 µM |
| COc1ccc(NC(=O)/C(C#N)=C\c2ccc(Br)o2)cc1 | 6.29 µM |
| CCN=c1scc(C)n1/N=C/c1ccc(O)c(O)c1O | 2.47 µM |
| CN(C)C(CNC(=O)c1cccnc1Sc1ccccc1)c1ccco1 (centres undefined) | 64 µM |
| COC(=O)CCC(=O)OC1(C)C(=O)C2=COC(c3ccc(OC)cc3)=CC2=C(Br)C1=O (centres undefined) | 13.7 µM |
| CC(=O)OC(C)C1C2=C(C(=O)CC1(C)O)C(=O)c1c(ccc(-c3ccc4c(c3O)C(=O)C3=C(C4=O)C(C(C)OC(C)=O)C(C)(O)CC3=O)c1O)C2=O (centres undefined) | 0.73 µM |
| O=C(Nc1ccccc1N1CCCC1)c1ccc(Br)o1 | 46.2 µM |
| CCc1ccc2nc(N3CCN(C)CC3)c(C#N)cc2c1 | 33.8 µM |
| O=C(/C=C/Nc1ccccc1Br)c1ccccn1 | 41.5 µM |
| CN(C)c1ncc(C2=C(Cl)C(=O)C(N3CCCC3)=C(Cl)C2=O)s1 | 0.38 µM |
| CCN(CC)c1ccc(N=Cc2c(O)n(-c3ccc(Cl)cc3)c(=O)[nH]c2=O)cc1 | 37.6 µM |
| Cc1cnnc2ccc3c(no[n+]3[O-])c12 | 4.71 µM |
| COCCNC(=O)COC(=O)c1[nH]c(C)c(C(C)=O)c1C | 9.88 µM |
| COc1ccc(OC)c(C2C(C(=O)Nc3ccc(F)cc3)=C(C)Nc3nc(CCCO)nn32)c1 (centres undefined) | 54.6 µM |
